Source: patent publication US20250179059A1 (The Regents of the University of California, priority 2021, published 2025)
Like-named read-outs stand apart in the source and are kept apart here.

Experiments:
[1] = target: T1, human BRD4 bromodomain II (Homo sapiens, UniProt O60885); experiment: Bromodomain binding assay (AlphaScreen), BRD4 BDII
T1 construct: human BRD4 bromodomain II [based on Genbank NM_058243, residues 349-460]; host or cells: E. coli
Summary of the method: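 Tagged BRD4 BDI or BDII constructs, expressed in E. coli, competed against a K5/K8/K12/K16-acetylated biotin-H4 peptide. Proximity signal between bead pairs after room-temperature incubations gave concentration-response curves, from which IC50 was derived.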

[2] = tested on: human SKM-1 acute myeloid leukemia cells; experiment: SKM-1 antiproliferation cell-based assay (ATPlite); conditions: Homo sapiens
Summary of the method: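 Log-phase cells in RPMI 1640/15% FBS were seeded at 34722 cells/mL and exposed for 4 days to nine-concentration DMSO serial dilutions in triplicate. Viability was read as ATP luminescence (ATPlite 1step), and IC50 values came from variable-slope non-linear regression.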

[3] = AlphaScreen assay, Table C2, read-out: BRD4 BDII IC50
[4] = SKM-1, 96 h, SKM-1 antiproliferation assay, 4 days, Table C2
[5] = BRD4 BDII AlphaScreen assay, read-out: BRD4 BD2 IC50
[6] = SKM-1, SKM-1 antiproliferation assay

Compound | IC50 [1, 3] [nM] | GI50 [2, 4] [nM] | IC50 [1, 5] [nM] | GI50 [2, 6] [nM]
CN1CCN(c2ccc(-c3cc(F)cc(-c4cnc(C#N)c(N5CCNCC5)c4)c3O)cc2Cl)C1=O [Example 357, 5-(3′-chloro-5-fluoro-2-hydroxy-4′-(3-methyl-2-oxoimidazolidin-1-yl)-[1,1′-biphenyl]-3-yl)-3-(piperazin-1-yl)picolinonitrile] | 1 to 10 | 30 to 300 | – | –
C[C@@H]1CN(c2cc(-c3cc(F)cc(-c4ccc(-n5ccn(C)c5=O)c(Cl)c4)c3O)cc3[nH]c(=O)[nH]c23)CCN1 [Example 603, (R)-6-(3′-chloro-5-fluoro-2-hydroxy-4′-(3-methyl-2-oxo-2,3-dihydro-1H-imidazol-1-yl)-[1,1′-biphenyl]-3-yl)-4-(3-methylpiperazin-1-yl)-1H-benzo[d]imidazol-2(3H)-one] | 0.01 to 1 | 30 to 300 | – | –
Cn1ccn(-c2ccc(-c3cc(F)cc(-c4ccnc(N5CCC[C@@H](O)C5)c4)c3O)cc2Cl)c1=O [Example 622, (R)-1-(3-chloro-5′-fluoro-2′-hydroxy-3′-(2-(3-hydroxypiperidin-1-yl)pyridin-4-yl)-[1,1′-biphenyl]-4-yl)-3-methyl-1H-imidazol-2(3H)-one] | 1 to 10 | 30 to 300 | – | –
CN1CCN(c2ccc(-c3cccc(-c4cncc(N5CCCC(N)C5)c4)c3O)cc2Cl)C1=O (stereo not shown) [Example 325, 1-(3′-(5-(3-aminopiperidin-1-yl)pyridin-3-yl)-3-chloro-2′-hydroxy-[1,1′-biphenyl]-4-yl)-3-methylimidazolidin-2-one] | 1 to 10 | 30 to 300 | – | –
COc1ncc(-c2cc(F)cc(-c3ccc(-n4ccn(C)c4=O)c(Cl)c3)c2OC(C)=O)cc1N1CCN(C(C)C)CC1 [Example 860] | – | – | > 100 | 0.3 to 30
CN[C@H]1CCCN(c2cc(-c3cc(F)cc(-c4ccc(-n5ccn(C)c5=O)c(Cl)c4)c3O)ccn2)C1 [Example 440, (S)-1-(3-chloro-5′-fluoro-2′-hydroxy-3′-(2-(3-(methylamino)piperidin-1-yl)pyridin-4-yl)-[1,1′-biphenyl]-4-yl)-3-methyl-1H-imidazol-2(3H)-one] | 0.01 to 1 | 30 to 300 | – | –
Cn1ccn(-c2ccc(-c3cc(F)cc(-c4ccnc(N5CCN(C6CCOCC6)CC5)c4)c3O)cc2Cl)c1=O [Example 634, 1-(3-chloro-5′-fluoro-2′-hydroxy-3′-(2-(4-(tetrahydro-2H-pyran-4-yl)piperazin-1-yl)pyridin-4-yl)-[1,1′-biphenyl]-4-yl)-3-methyl-1H-imidazol-2(3H)-one] | 0.01 to 1 | 0.3 to 30 | – | –
Cn1ccn(-c2ccc(-c3cc(F)cc(-c4ccnc(N5CCN(C(C)(C)C)CC5)c4)c3O)cc2Cl)c1=O [Example 614, 1-(3′-(2-(4-(tert-butyl)piperazin-1-yl)pyridin-4-yl)-3-chloro-5′-fluoro-2′-hydroxy-[1,1′-biphenyl]-4-yl)-3-methyl-1H-imidazol-2(3H)-one] | 0.01 to 1 | 0.3 to 30 | – | –
Cc1cc(-c2ccnc(N3CCN[C@H](C)C3)c2)c(O)c(-c2ccc(-n3ccn(C)c3=O)c(F)c2)c1 [Example 546, (R)-1-(3-fluoro-2′-hydroxy-5′-methyl-3′-(2-(3-methylpiperazin-1-yl)pyridin-4-yl)-[1,1′-biphenyl]-4-yl)-3-methyl-1H-imidazol-2(3H)-one] | 0.01 to 1 | 0.3 to 30 | – | –
Cn1ccn(-c2ccc(-c3cc(F)cc(-c4ccnc(N5CCCCC5)c4)c3O)cc2Cl)c1=O [Example 612, 1-(3-chloro-5′-fluoro-2′-hydroxy-3′-(2-(piperidin-1-yl)pyridin-4-yl)-[1,1′-biphenyl]-4-yl)-3-methyl-1H-imidazol-2(3H)-one] | 1 to 10 | 300 to 3000 | – | –
CNC(=O)c1cc(-c2ccnc(N3CCNCC3)c2)c(O)c(-c2ccc(NC(C)=O)c(F)c2)c1 [Example 299, 4′-Acetamido-3′-fluoro-6-hydroxy-N-methyl-5-(2-(piperazin-1-yl)pyridin-4-yl)-[1,1′-biphenyl]-3-carboxamide] | 10 to 100 | ≥ 3000 | – | –
Cn1ccn(-c2ccc(-c3cc(F)cc(-c4ccnc(N5CCN[C@H](C(C)(C)O)C5)c4)c3O)cc2Cl)c1=O [Example 639, (S)-1-(3-chloro-5′-fluoro-2′-hydroxy-3′-(2-(3-(2-hydroxypropan-2-yl)piperazin-1-yl)pyridin-4-yl)-[1,1′-biphenyl]-4-yl)-3-methyl-1H-imidazol-2(3H)-one] | 0.01 to 1 | 0.3 to 30 | – | –
CN1CCN(c2ccc(-c3cc(F)cc(-c4ccc(=O)n(C5CCNCC5)c4)c3O)cc2Cl)C1=O [Example 477, 5-(3′-chloro-5-fluoro-2-hydroxy-4′-(3-methyl-2-oxoimidazolidin-1-yl)-[1,1′-biphenyl]-3-yl)-1-(piperidin-4-yl)pyridin-2(1H)-one] | 1 to 10 | 30 to 300 | – | –
COc1ncc(-c2cc(F)cc(-c3ccc(-n4ccn(C)c4=O)c(Cl)c3)c2O)cc1N1CC2(CC2)[C@](C)(O)C1 [Example 875] | – | – | 0.01 to 1 | 0.3 to 30
CCC1CCN(c2ccc(-c3cccc(-c4ccnc(N5CCNCC5)c4)c3O)cc2Cl)C1=O (stereo not shown) [Example 345, 1-(3-chloro-2′-hydroxy-3′-(2-(piperazin-1-yl)pyridin-4-yl)-[1,1′-biphenyl]-4-yl)-3-ethylpyrrolidin-2-one] | > 100 | 300 to 3000 | – | –
CN1CCN(c2cncc(-c3cc(F)cc(-c4ccc(-n5ccn(C)c5=O)c(Cl)c4)c3O)c2)CC1 [Example 465, 1-(3-chloro-5′-fluoro-2′-hydroxy-3′-(5-(4-methylpiperazin-1-yl)pyridin-3-yl)-[1,1′-biphenyl]-4-yl)-3-methyl-1H-imidazol-2(3H)-one] | 0.01 to 1 | 0.3 to 30 | – | –
O=C1CCCN1c1ccc(-c2cccc(-c3ccnc(N4CC5(CNC5)C4)c3)c2O)cc1F [Example 284, 1-(3′-(2-(2,6-diazaspiro[3.3]heptan-2-yl)pyridin-4-yl)-3-fluoro-2′-hydroxy-[1,1′-biphenyl]-4-yl)pyrrolidin-2-one] | 10 to 100 | 300 to 3000 | – | –
COCCCOc1cc(-c2cc(F)cc(-c3ccc(-n4ccn(C)c4=O)c(Cl)c3)c2O)cc(N2CCN[C@H](C)C2)n1 [Example 715, (R)-1-(3-chloro-5′-fluoro-2′-hydroxy-3′-(2-(3-methoxypropoxy)-6-(3-methylpiperazin-1-yl)pyridin-4-yl)-[1,1′-biphenyl]-4-yl)-3-methyl-1H-imidazol-2(3H)-one] | 0.01 to 1 | 0.3 to 30 | – | –
CC(=O)NCc1cc(-c2cccc(-c3ccc(N4CCN(C)C4=O)c(Cl)c3)c2O)cc(N2CCNCC2)c1 [Example 327, N-((3″-chloro-2′-hydroxy-4″-(3-methyl-2-oxoimidazolidin-1-yl)-5-(piperazin-1-yl)-[1,1′:3′,1″-terphenyl]-3-yl)methyl)acetamide] | 1 to 10 | 30 to 300 | – | –
Cn1ccn(-c2ccc(-c3cc(F)cc(-c4ccnc(N5CC6NCCOC6C5)c4)c3O)cc2Cl)c1=O (stereo not shown) [Example 648, 1-(3-chloro-5′-fluoro-3′-(2-(hexahydropyrrolo[3,4-b][1,4]oxazin-6(2H)-yl)pyridin-4-yl)-2′-hydroxy-[1,1′-biphenyl]-4-yl)-3-methyl-1H-imidazol-2(3H)-one] | 0.01 to 1 | 0.3 to 30 | – | –
Cn1ccn(-c2ccc(-c3cc(F)cc(-c4ccnc(N5CCS(=N)(=O)CC5)c4)c3O)cc2Cl)c1=O [Example 915, 1-(3-chloro-5′-fluoro-2′-hydroxy-3′-(2-(1-imino-1-oxidothiomorpholino)pyridin-4-yl)-[1,1′-biphenyl]-4-yl)-3-methyl-1H-imidazol-2(3H)-one] | – | – | 0.01 to 1 | 30 to 300
Cn1ccn(-c2ccc(-c3cc(F)cc(-c4cncc(N5CC[C@](C)(N)C5)c4)c3O)cc2Cl)c1=O [Example 746, (S)-1-(3′-(5-(3-amino-3-methylpyrrolidin-1-yl)pyridin-3-yl)-3-chloro-5′-fluoro-2′-hydroxy-[1,1′-biphenyl]-4-yl)-3-methyl-1H-imidazol-2(3H)-one] | 0.01 to 1 | 0.3 to 30 | – | –
Cn1ccn(-c2ccc(-c3cc(F)cc(-c4cc(N5CCN(C(C)(C)C)CC5)n(C)c(=O)c4)c3O)cc2Cl)c1=O [Example 735, 6-(4-(tert-butyl)piperazin-1-yl)-4-(3′-chloro-5-fluoro-2-hydroxy-4′-(3-methyl-2-oxo-2,3-dihydro-1H-imidazol-1-yl)-[1,1′-biphenyl]-3-yl)-1-methylpyridin-2(1H)-one] | 0.01 to 1 | 0.3 to 30 | – | –
Cc1nc(-c2cc(F)cc(-c3cccc(N4CCN(C(C)(C)C)CC4)c3)c2O)ccc1-n1ccn(C)c1=O [Example 936, 1-(6-(3′-(4-(tert-butyl)piperazin-1-yl)-5-fluoro-2-hydroxy-[1,1′-biphenyl]-3-yl)-2-methylpyridin-3-yl)-3-methyl-1H-imidazol-2(3H)-one] | – | – | > 100 | 300 to 3000
CN(C)C1(C)CCN(c2cc(-c3cc(F)cc(-c4ccc(-n5ccn(C)c5=O)c(Cl)c4)c3O)ccn2)C1 (stereo not shown) [Example 741, 1-(3-chloro-3′-(2-(3-(dimethylamino)-3-methylpyrrolidin-1-yl)pyridin-4-yl)-5′-fluoro-2′-hydroxy-[1,1′-biphenyl]-4-yl)-3-methyl-1H-imidazol-2(3H)-one] | 0.01 to 1 | 0.3 to 30 | – | –
CC(=O)Nc1ccc(-c2cccc(-c3ccnc(N4CCC(O)C4)c3)c2O)cc1F (stereo not shown) [Example 199, N-(3-fluoro-2′-hydroxy-3′-(2-(3-hydroxypyrrolidin-1-yl)pyridin-4-yl)-[1,1′-biphenyl]-4-yl)acetamide] | 1 to 10 | 300 to 3000 | – | –
